# In publication PMC6576746, “Rational discovery of dual-indication multi-target PDE/Kinase inhibitor for precision anti-cancer therapy using structural systems pharmacology” (PLoS Computational Biology, 2019):
# Tests used:
# Test in all cases: biochemical
# Design in all cases: DiscoverX KinomeScan competition binding assay across human kinases; per cent of control at 10 and 100 uM
# [1] = target: T1, ABL1(Q252H)-phosphorylated (Homo sapiens, UniProt P00519, Q252H); details: competition binding, % of control; read-out: Percent Control (100 uM Levosimendan)
# T1 construct: phosphorylated
# In short: (§1)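 KinomeScan competition binding was run across a human kinase panel at 10 μM and 100 μM levosimendan. Results are %control = (test − positive control)/(negative control − positive control) × 100.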
# [2] = target: T2, ABL1(T315I)-nonphosphorylated (Homo sapiens, UniProt P00519, T315I); details: competition binding, % of control; read-out: Percent Control (100 uM Levosimendan)
# T2 construct: nonphosphorylated
# In short: as §1
# AKT3 = AKT3 (Homo sapiens, UniProt Q9Y243); details: competition binding, % of control
# Sequence of AKT3 (Q9Y243 whole entry): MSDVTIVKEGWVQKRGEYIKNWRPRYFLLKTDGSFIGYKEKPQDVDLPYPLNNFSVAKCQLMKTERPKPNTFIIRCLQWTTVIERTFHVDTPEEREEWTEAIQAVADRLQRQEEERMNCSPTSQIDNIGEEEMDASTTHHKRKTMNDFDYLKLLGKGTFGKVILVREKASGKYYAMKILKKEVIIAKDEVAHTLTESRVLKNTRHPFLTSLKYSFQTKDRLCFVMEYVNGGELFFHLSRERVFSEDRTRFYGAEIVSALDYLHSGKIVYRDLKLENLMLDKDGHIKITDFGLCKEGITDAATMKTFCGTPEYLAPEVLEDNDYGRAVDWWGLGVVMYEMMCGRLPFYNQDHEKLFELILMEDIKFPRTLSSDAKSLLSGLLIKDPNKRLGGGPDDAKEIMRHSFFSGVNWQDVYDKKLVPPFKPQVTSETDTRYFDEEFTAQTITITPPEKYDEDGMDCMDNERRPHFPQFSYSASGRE
# In short: as §1
# AURKB = AURKB (Homo sapiens, UniProt Q96GD4); details: competition binding, % of control
# Sequence of AURKB (Q96GD4 whole entry): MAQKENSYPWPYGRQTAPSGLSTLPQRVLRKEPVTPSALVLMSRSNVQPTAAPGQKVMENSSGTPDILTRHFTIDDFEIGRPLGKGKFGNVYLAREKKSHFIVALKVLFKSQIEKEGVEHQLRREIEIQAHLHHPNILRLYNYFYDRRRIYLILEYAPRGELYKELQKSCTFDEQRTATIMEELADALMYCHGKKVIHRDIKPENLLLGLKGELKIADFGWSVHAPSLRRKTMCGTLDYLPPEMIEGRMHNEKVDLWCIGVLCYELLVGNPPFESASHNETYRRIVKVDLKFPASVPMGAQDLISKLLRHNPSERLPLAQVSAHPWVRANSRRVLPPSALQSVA
# In short: as §1
# DAPK2 = DAPK2 (Homo sapiens, UniProt Q9UIK4); details: competition binding, % of control; read-out: Percent Control (100 uM Levosimendan)
# In short: as §1
# DAPK3 = DAPK3 (Homo sapiens, UniProt O43293); details: competition binding, % of control; read-out: Percent Control (100 uM Levosimendan)
# Sequence of DAPK3 (O43293 whole entry): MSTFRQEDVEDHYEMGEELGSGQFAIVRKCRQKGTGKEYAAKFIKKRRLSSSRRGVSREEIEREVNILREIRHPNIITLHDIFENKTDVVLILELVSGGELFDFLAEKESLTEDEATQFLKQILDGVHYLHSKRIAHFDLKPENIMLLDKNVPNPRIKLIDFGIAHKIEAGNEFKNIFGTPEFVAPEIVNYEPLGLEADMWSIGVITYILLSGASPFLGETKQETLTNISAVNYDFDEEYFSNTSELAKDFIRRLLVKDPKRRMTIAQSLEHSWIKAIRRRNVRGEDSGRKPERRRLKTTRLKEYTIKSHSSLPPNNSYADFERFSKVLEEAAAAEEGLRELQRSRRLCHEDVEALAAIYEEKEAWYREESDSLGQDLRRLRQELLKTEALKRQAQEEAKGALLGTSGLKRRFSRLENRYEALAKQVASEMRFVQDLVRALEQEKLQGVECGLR
# In short: as §1
# DDR1 = DDR1 (Homo sapiens, UniProt Q08345); details: competition binding, % of control; read-out: Percent Control (100 uM Levosimendan)
# In short: as §1
# EGFR(E746-A750del) = EGFR(E746-A750del) (Homo sapiens, UniProt P00533, DEL746-750); details: competition binding, % of control; read-out: Percent Control (100 uM Levosimendan)
# In short: as §1
# EGFR(G719S) = EGFR(G719S) (Homo sapiens, UniProt P00533, G719S); details: competition binding, % of control
# Sequence of EGFR(G719S) (P00533 whole entry G719S): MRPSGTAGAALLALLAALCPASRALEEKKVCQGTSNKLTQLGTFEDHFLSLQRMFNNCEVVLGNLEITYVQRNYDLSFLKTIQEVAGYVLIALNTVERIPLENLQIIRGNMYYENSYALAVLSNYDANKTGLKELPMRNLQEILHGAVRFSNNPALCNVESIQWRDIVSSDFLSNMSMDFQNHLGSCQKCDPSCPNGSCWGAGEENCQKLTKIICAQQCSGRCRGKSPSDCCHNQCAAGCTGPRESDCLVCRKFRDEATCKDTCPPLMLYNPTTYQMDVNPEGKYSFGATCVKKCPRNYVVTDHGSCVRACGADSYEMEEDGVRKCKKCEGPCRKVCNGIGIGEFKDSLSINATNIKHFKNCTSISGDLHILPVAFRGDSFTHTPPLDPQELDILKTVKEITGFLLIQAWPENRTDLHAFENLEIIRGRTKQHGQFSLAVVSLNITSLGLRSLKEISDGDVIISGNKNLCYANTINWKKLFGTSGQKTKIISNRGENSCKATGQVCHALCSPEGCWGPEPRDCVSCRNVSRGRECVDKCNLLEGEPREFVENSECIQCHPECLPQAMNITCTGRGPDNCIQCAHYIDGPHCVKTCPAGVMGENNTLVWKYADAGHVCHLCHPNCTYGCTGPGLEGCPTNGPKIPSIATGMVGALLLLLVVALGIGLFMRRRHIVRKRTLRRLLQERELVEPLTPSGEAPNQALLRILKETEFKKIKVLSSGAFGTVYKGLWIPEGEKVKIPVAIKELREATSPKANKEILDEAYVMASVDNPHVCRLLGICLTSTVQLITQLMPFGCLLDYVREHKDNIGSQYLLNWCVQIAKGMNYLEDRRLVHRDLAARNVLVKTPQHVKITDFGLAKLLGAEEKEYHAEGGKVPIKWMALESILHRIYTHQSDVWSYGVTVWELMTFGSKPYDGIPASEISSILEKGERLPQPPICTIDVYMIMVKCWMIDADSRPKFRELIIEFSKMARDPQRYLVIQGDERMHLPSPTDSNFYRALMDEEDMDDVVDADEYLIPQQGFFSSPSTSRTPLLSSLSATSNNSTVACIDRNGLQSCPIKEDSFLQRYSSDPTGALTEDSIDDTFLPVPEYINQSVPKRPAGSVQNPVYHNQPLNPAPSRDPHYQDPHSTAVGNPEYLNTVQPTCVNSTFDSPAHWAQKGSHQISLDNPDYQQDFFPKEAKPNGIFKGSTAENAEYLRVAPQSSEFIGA
# In short: as §1
# IKK-beta = target: T3, IKK-beta (Homo sapiens, UniProt O14920); details: competition binding, % of control; read-out: Percent Control (100 uM Levosimendan)
# T3 construct: gene IKBKB
# In short: as §1
# LIMK2 = LIMK2 (Homo sapiens, UniProt P53671); details: competition binding, % of control; read-out: Percent Control (100 uM Levosimendan)
# Sequence of LIMK2 (P53671 whole entry): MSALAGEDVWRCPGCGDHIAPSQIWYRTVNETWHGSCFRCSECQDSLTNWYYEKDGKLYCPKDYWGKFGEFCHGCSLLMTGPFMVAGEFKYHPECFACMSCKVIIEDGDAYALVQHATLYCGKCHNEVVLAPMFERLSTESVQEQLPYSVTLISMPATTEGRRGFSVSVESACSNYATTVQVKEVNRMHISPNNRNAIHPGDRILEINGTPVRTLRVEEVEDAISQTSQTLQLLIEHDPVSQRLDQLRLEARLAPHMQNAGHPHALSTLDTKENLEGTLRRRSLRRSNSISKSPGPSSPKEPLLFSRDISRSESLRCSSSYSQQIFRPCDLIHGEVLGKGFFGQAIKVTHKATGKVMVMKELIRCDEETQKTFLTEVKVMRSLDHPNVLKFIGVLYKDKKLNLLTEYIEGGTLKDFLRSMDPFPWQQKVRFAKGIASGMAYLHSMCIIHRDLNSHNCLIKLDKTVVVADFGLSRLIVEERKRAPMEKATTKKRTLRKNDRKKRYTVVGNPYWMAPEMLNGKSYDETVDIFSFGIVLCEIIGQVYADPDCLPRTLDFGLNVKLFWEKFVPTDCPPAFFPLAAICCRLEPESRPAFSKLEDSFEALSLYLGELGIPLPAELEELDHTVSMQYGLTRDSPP
# In short: as §1
# MAPKAPK2 = MAPKAPK2 (Homo sapiens, UniProt P49137); details: competition binding, % of control; read-out: Percent Control (100 uM Levosimendan)
# In short: as §1
# MUSK = MUSK (Homo sapiens, UniProt O15146); details: competition binding, % of control; read-out: Percent Control (100 uM Levosimendan)
# In short: as §1
# NEK6 = NEK6 (Homo sapiens, UniProt Q9HC98); details: competition binding, % of control; read-out: Percent Control (100 uM Levosimendan)
# In short: as §1
# PIP5K1C = PIP5K1C (Homo sapiens, UniProt O60331); details: competition binding, % of control
# Sequence of PIP5K1C (O60331 whole entry): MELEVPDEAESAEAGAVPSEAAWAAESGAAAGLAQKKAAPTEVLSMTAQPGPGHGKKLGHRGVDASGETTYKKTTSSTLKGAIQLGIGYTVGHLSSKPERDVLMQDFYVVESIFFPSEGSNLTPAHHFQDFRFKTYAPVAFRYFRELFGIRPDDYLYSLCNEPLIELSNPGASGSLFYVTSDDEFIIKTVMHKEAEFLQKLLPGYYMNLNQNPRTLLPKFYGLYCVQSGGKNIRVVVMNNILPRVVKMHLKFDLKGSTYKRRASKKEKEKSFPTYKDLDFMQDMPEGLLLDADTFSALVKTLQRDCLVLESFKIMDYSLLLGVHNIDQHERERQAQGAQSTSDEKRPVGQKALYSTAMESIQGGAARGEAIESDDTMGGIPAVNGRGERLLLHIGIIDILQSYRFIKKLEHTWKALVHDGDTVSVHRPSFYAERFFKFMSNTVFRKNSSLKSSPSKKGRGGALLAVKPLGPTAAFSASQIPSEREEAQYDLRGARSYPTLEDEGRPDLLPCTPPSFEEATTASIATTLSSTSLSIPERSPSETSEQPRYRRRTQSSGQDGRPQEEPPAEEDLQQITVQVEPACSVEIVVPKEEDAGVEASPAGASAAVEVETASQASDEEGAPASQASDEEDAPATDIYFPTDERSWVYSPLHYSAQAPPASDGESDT
# In short: as §1
# PRKCQ = PRKCQ (Homo sapiens, UniProt Q04759); details: competition binding, % of control
# Sequence of PRKCQ (Q04759 whole entry): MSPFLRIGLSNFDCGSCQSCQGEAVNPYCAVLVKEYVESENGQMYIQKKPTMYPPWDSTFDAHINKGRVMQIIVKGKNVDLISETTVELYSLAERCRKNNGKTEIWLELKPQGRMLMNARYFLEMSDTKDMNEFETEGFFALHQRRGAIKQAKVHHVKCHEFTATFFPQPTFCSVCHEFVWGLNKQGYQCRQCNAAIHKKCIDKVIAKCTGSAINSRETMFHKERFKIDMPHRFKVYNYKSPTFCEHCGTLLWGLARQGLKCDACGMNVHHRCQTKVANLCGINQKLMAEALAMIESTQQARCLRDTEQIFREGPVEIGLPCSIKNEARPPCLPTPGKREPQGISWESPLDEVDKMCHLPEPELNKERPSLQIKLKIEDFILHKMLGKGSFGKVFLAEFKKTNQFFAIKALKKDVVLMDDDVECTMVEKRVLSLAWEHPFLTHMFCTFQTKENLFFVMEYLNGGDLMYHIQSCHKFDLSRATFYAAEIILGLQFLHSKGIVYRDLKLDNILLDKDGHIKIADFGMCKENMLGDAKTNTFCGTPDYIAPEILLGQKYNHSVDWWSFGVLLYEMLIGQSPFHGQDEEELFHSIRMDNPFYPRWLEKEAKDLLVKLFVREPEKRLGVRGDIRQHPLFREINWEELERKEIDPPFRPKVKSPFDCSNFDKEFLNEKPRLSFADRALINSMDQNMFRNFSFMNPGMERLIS
# In short: as §1
# ROS1 = ROS1 (Homo sapiens, UniProt P08922); details: competition binding, % of control; read-out: Percent Control (100 uM Levosimendan)
# In short: as §1
# SGK3 = SGK3 (Homo sapiens, UniProt Q96BR1); details: competition binding, % of control; read-out: Percent Control (100 uM Levosimendan)
# Sequence of SGK3 (Q96BR1 whole entry): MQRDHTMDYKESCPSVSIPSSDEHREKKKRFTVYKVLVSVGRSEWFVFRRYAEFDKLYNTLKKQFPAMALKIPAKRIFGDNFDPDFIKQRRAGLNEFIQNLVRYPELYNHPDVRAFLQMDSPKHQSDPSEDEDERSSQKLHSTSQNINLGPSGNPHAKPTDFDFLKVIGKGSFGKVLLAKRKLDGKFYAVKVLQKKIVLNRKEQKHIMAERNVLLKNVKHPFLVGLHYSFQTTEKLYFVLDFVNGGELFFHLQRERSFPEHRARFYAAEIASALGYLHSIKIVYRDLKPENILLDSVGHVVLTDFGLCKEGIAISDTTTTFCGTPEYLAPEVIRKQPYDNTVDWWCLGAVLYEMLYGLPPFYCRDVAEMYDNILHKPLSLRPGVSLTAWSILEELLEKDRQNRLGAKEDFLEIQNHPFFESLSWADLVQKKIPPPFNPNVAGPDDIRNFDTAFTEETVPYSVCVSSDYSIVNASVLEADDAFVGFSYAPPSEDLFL
# In short: as §1
# WEE1 = WEE1 (Homo sapiens, UniProt P30291); details: competition binding, % of control; read-out: Percent Control (100 uM Levosimendan)
# In short: as §1
# [3] = read-out: Percent Control (10 uM Levosimendan)
# [4] = read-out: Percent Control (100 uM Levosimendan)
structure (smiles),measurement,setting,value
C[C@@H]1CC(=O)NN=C1c1ccc(NN=C(C#N)C#N)cc1 [levosimendan],remaining binding at 100 µM,[1],68%
same,remaining binding at 100 µM,[2],100%
same,remaining binding at 10 µM,AKT3; [3],96%
same,remaining binding at 100 µM,AKT3; [4],37%
same,remaining binding at 10 µM,AURKB; [3],75%
same,remaining binding at 100 µM,AURKB; [4],28%
same,remaining binding at 100 µM,DAPK2,73%
same,remaining binding at 100 µM,DAPK3,60%
same,remaining binding at 100 µM,DDR1,84%
same,remaining binding at 100 µM,EGFR(E746-A750del),63%
same,remaining binding at 10 µM,EGFR(G719S); [3],79%
same,remaining binding at 100 µM,EGFR(G719S); [4],41%
same,remaining binding at 100 µM,IKK-beta,74%
same,remaining binding at 100 µM,LIMK2,87%
same,remaining binding at 100 µM,MAPKAPK2,100%
same,remaining binding at 100 µM,MUSK,100%
same,remaining binding at 100 µM,NEK6,71%
same,remaining binding at 10 µM,PIP5K1C; [3],91%
same,remaining binding at 100 µM,PIP5K1C; [4],50%
same,remaining binding at 10 µM,PRKCQ; [3],5.2%
same,remaining binding at 100 µM,PRKCQ; [4],36%
same,remaining binding at 100 µM,ROS1,62%
same,remaining binding at 100 µM,SGK3,92%
same,remaining binding at 100 µM,WEE1,100%
